Assay results: patent publication US20190174768A1 (priority 2016, published 2019)

Tests used:
F. graminearum = type: cell-based, Fusarium graminearum
[1] = test system: Venturia inaequalis Strain EUB04; assay: In planta test on apple plantlets against apple scab; type: in vivo; conditions: reference fungicide mode, D9 to D21
Experimental: The in planta tests on apple plantlets were carried out according to the following protocol:
2 modes tested: spraying of extract D at 5 g/L 2 hours before inoculation (ExtractBefore) and spraying of extract D at 5 g/L 3 hours after inoculation (ExtractAfter)
3 control modes: • 2 untreated control modes (spraying of water on the same dates as the product) (WaterBefore and WaterAfter) • 1 mode with a reference fungicide (captan)
Artificial inoculation of plants with a Venturia inaequalis strain at 100 000 spores/ml.
Scab symptoms noted at 4 dates post-inoculation (visual estimate of % scab area)
Biological material: • Plantlets derived from roughly 3-week-old apple seedlings in soil balls—from pips taken from the Gala variety (apples harvested in an orchard planted with Gala and Elstar) • Venturia inaequalis spores on cellophane—Strain EUB04
3 boxes of 12 plantlets for each mode
D+9, D+14, D+17, D+21: Notation of percentage of leaf area affected (from 0 to 100% in 10% increments)
Since the normality and homogeneity conditions of the variances of the residues were not met, a non-parametric Kruskal-Wallis test was performed. This test being significant, the medians of the different modes were compared pairwise using the Nemenyi test based on Tukey's distance. These analyses were carried out with the R software (version 3.1.2).

Row | Compound | antifungal activity against F. graminearum (F. graminearum) | scab development [1]
1 | C=C/C=C/CC/C=C/C=C/C=C/CC/C=C/[C@H](O)[C@H](O)[C@@H]1O[C@@H]([C@H](O)[C@H](O)C(=C)CC[C@@H](O)[C@H]2C[C@@H](O)[C@@H](O)[C@H]([C@@H](O)[C@H](O)/C=C(\C)CCC(O)CC(O)C(O)C(C)CC(O)C(O)CC(C)CCC(O)CC(=O)CC(O)CCCC(O)CCCCC(O)CO)O2)C[C@@H](O)[C@H]1O (some centres unmarked) [amphidinol 18] | has antifungal activity against F. graminearum | –
2 | O=C1C2CC=CCC2C(=O)N1SC(Cl)(Cl)Cl (centres unmarked) [captan] | – | no scab development was observed
